What was measured:
[1] = test system: a variety of standard laboratory microorganisms; details: cited from earlier work
[2] = test system: Escherichia coli ATCC 25922; assay: Mouse septicemia model; type: in vivo; details: ATCC25922, ICR male mice, E. coli ATCC 25922 intraperitoneally, compound PO or IV at 1 and 5 hours after inoculation, mortality recorded for 7 days
Experimental: Escherichia coli ATCC 25922 was used to test the efficacy of compounds in a mouse septicemia model using six ICR male mice per group. Mice were inoculated intraperitoneally with 2×10^5 cfu/mouse in 0.5 ml of Brain-Heart Infusion broth supplemented with 5% mucin. The compounds were tested at 40, 20, 10, 5 and 2.5 mg/kg orally (PO) or at 20, 10, 5 and 2.5 mg/kg intravenously (IV) at 1 and 5 hours after bacterial inoculation. Controls included vehicle control (0.9% NaCl, 10 ml/kg) and an antibiotic control with ampicillin. Mortality was recorded for 7 days, and an ED50 was determined by non-linear regression.

[3] = test system: Gram negative and Gram positive bacteria; details: against Gram negative and Gram positive bacteria; cited from earlier work

Row | SMILES | ED50 [2] [mg/kg] | other results
1 | CN(CC(=O)O)NC(=O)C[C@H](N)CCCN [Deoxynegamycin, D-3,6-diaminiohexanoic acid-2-(carboxymethyl)-2-methylhyrazide] |  | antimicrobial activity in vitro [1]: broad-spectrum antibacterial and antifungal activity
2 | CNC[C@H](O)C[C@@H](N)CC(=O)NN(C)CC(=O)O [Example 1] | < 40 | 
3 | CN(CC(=O)O)NC(=O)C[C@H](N)C[C@@H](F)CN [Example 5, {N′-[(3R)-Amino-6-amino-(5R)-fluorohexanoyl]-N-methylhydrazino}acetic acid] | < 40 | 
4 | CNC[C@H](F)C[C@@H](N)CC(=O)NN(C)CC(=O)O [Example 7, {N′-[(3R)-Amino-(5R)-fluoro-6-methylaminohexanoyl]-N-methylhydrazino}acetic acid] | < 40 | 
5 | CN(CC(=O)O)NC(=O)C[C@H](N)C[C@@H](O)CN [Negamycin, [2-{(3R, 5R)-3,6-diamino-5-hydroxyhexanoyl}-1-methylhydrazino]acetic acid] |  | inhibitory activity [3]: strong inhibitory activity

From US20030125389A1, “Beta-amino acid derivatives useful for the treatment of bacterial infections” (priority 2001, published 2003)
